Measurements as given in ChEMBL document CHEMBL1275379, “Indazolylpyrazolopyrimidine as highly potent B-Raf inhibitors with in vivo activity” (J Med Chem, 2010).
Activity calls are given as the source filed them. No cut-off for these calls is given here.

Assays:
[1] = target: T1, Epidermal growth factor receptor (Homo sapiens, UniProt P00533); details: 1 uM
Description: Inhibition of EGFR at 1 uM

[2] = target: Serine/threonine-protein kinase pim-1 (Homo sapiens) (UniProt P11309); test: Inhibition of PIM1 at 1 uM
[3] = target: Serine/threonine-protein kinase PLK1 (Homo sapiens) (UniProt P53350); test: Inhibition of PLK1 at 1 uM
[4] = Half life in human liver microsomes; assay type: ADME, Microsome
[5] = target: Serine/threonine-protein kinase Chk1 (Homo sapiens) (UniProt O14757); test: Inhibition of CHEK1 at 1 uM
[6] = target: Protein kinase C beta type (Homo sapiens) (UniProt P05771); test: Inhibition of PRKCB1 at 1 uM
[7] = target: Mitogen-activated protein kinase 14 (Homo sapiens, UniProt Q16539); test: Inhibition of MAPK14
[8] = target: Receptor-type tyrosine-protein kinase FLT3 (Homo sapiens) (UniProt P36888); test: Inhibition of FLT3 at 1 uM
[9] = target: Vascular endothelial growth factor receptor 2 (Homo sapiens) (UniProt P35968); test: Inhibition of KDR at 1 uM
[10] = target: Dual specificity mitogen-activated protein kinase kinase 1 (Homo sapiens) (UniProt Q02750); test: Inhibition of MAP2K at 1 uM
[11] = target: T1, Epidermal growth factor receptor
[12] = target: Tyrosine-protein kinase CSK (Homo sapiens) (UniProt P41240); test: Inhibition of CSK at 1 uM
[13] = Half life in nude mouse; assay type: ADME, organism-based; details: in vivo
[14] = target: Glycogen synthase kinase-3 beta (Homo sapiens) (UniProt P49841); test: Inhibition of GSK3B at 1 uM
[15] = target: Aurora kinase B (Homo sapiens) (UniProt Q96GD4); test: Inhibition of AURKB at 1 uM
[16] = target: Aurora kinase A (Homo sapiens) (UniProt O14965); test: Inhibition of AURKA at 1 uM
[17] = target: Serine/threonine-protein kinase B-raf (Homo sapiens, UniProt P15056); test: Inhibition of BRAF
[18] = target: Mast/stem cell growth factor receptor Kit (Homo sapiens) (UniProt P10721); test: Inhibition of KIT at 1 uM
[19] = target: Proto-oncogene tyrosine-protein kinase receptor Ret (Homo sapiens, UniProt P07949); test: Inhibition of RET
[20] = target: Focal adhesion kinase 1 (PTK2) (Homo sapiens) (UniProt Q05397); test: Inhibition of PTK2 at 1 uM
[21] = target: RAF proto-oncogene serine/threonine-protein kinase (Homo sapiens, UniProt P04049); test: Inhibition of C-raf
[22] = target: Rho-associated protein kinase 1 (Homo sapiens) (UniProt Q13464); test: Inhibition of ROCK1 at 1 uM
Angiopoietin-1 receptor [23] = target: T2, Angiopoietin-1 receptor (Homo sapiens, UniProt Q02763); test: Inhibition of TEK
[24] = target: Protein kinase C delta type (Homo sapiens) (UniProt Q05655); test: Inhibition of PRKCD at 1 uM
[25] = target: Proto-oncogene tyrosine-protein kinase Src (Homo sapiens) (UniProt P12931); details: 1 uM
Description: Inhibition of SRC at 1 uM

[26] = target: Mitogen-activated protein kinase 3 (Homo sapiens) (UniProt P27361); test: Inhibition of MAPK3 at 1 uM
[27] = target: Tyrosine-protein kinase Yes (Homo sapiens, UniProt P07947); details: 1 uM
Description: Inhibition of YES1 at 1 uM

[28] = target: Protein kinase C gamma type (Homo sapiens) (UniProt P05129); test: Inhibition of PRKCG at 1 uM
[29] = target: RAC-beta serine/threonine-protein kinase (Homo sapiens) (UniProt P31751); test: Inhibition of AKT2 at 1 uM
Angiopoietin-1 receptor [30] = target: T2, Angiopoietin-1 receptor; details: 1 uM
Description: Inhibition of TEK at 1 uM

[31] = Oral bioavailability in nude mouse at 10 mg/kg; assay type: ADME, organism-based; details: in vivo, read-out: Activity
[32] = target: Vascular endothelial growth factor receptor 3 (Homo sapiens) (UniProt P35916); test: Inhibition of FLT4 at 1 uM
[33] = Inhibition of PRKA at 1 uM
[34] = target: Serine/threonine-protein kinase Sgk1 (Homo sapiens) (UniProt O00141); test: Inhibition of SGK at 1 uM
[35] = Inhibition of MAP3K at 1 uM
Mus musculus = test: Toxicity in human A375 cells xenografted nude mouse; assay type: organism-based, A-375; details: in vivo
[36] = target: High affinity nerve growth factor receptor (Homo sapiens) (UniProt P04629); test: Inhibition of NTRK1 at 1 uM
[37] = target: Glycogen synthase kinase-3 alpha (Homo sapiens) (UniProt P49840); test: Inhibition of GSK3A at 1 uM
[38] = Drug level in plasma of human A375 cells xenografted nude mouse at 25 mg/kg, po after 24 hrs; assay type: ADME, organism-based, A-375; design: dose 25 mg/kg, route oral; details: read-out: Drug uptake
[39] = target: Tyrosine-protein kinase Lck (Homo sapiens, UniProt P06239); test: Inhibition of LCK
[40] = target: MAP kinase-activated protein kinase 2 (Homo sapiens) (UniProt P49137); test: Inhibition of MAPKAPK2 at 1 uM
[41] = target: Tyrosine-protein kinase JAK2 (Homo sapiens) (UniProt O60674); test: Inhibition of JAK2 at 1 uM
[42] = Inhibition of RPS6K at 1 uM
[43] = target: Serine/threonine-protein kinase Chk2 (Homo sapiens) (UniProt O96017); test: Inhibition of CHEK2 at 1 uM
[44] = target: Serine/threonine-protein kinase Nek2 (Homo sapiens) (UniProt P51955); test: Inhibition of NEK2 at 1 uM
[45] = target: Tyrosine-protein kinase ABL1 (Homo sapiens, UniProt P00519); test: Inhibition of ABL1
[46] = target: Cyclin-dependent kinase 1/cyclin B (Homo sapiens) (UniProt P06493+P14635+Q8WWL7+O95067); test: Inhibition of CDK1/cyclin B at 1 uM; assay type: protein-complex assay
[47] = Drug level in tumor tissue of human A375 cells xenografted nude mouse at 25 mg/kg, po after 6 hrs; assay type: ADME, organism-based, Neoplasm, A-375; design: dose 25 mg/kg, route oral; details: read-out: Drug uptake
[48] = target: Platelet-derived growth factor receptor beta (Homo sapiens) (UniProt P09619); test: Inhibition of PDGFRB at 1 uM
[49] = target: Protein kinase C alpha (Homo sapiens) (UniProt P17252); test: Inhibition of PRKCA at 1 uM
[50] = Half life in nude mouse liver microsomes; assay type: ADME, Microsome
COLO 205 = test: Antitumor activity against human COLO205 cells xenografted in nude mouse assessed as tumor growth inhibition at 7.5 mg/kg, po; assay type: functional, organism-based; design: dose 7.5 mg/kg

Structure (SMILES): CN1C[C@@H]2C[C@H]1CN2c1cc(F)c(-c2ccnc3c(-c4cccc5[nH]ncc45)c(-c4ccncc4)nn23)c(F)c1
- inhibition [1]: 77%
- inhibition [2]: 5%
- inhibition [3]: 11%
- half-life [4]: > 0.5 h
- inhibition [5]: 0%
- inhibition [6]: 39%
- IC50 [7]: 145 nM
- inhibition [8]: 23%
- inhibition [9]: 39%
- inhibition [10]: 12%
- IC50 [11]: 173 nM
- inhibition [12]: 19%
- half-life [13]: 3.5 h
- inhibition [14]: 35%
- inhibition [15]: 0%
- inhibition [16]: 7%
- IC50 [17]: 0.16 nM
- inhibition [18]: 9%
- IC50 [19]: 160 nM
- inhibition [20]: 15%
- IC50 [21]: 8.52 nM
- inhibition [22]: 3%
- IC50 (Angiopoietin-1 receptor [23]): 293 nM
- inhibition [24]: 10%
- inhibition [25]: 77%
- inhibition [26]: 5%
- inhibition [27]: 68%
- inhibition [28]: 15%
- inhibition [29]: 9%
- inhibition (Angiopoietin-1 receptor [30]): 81%
- bioavailability [31]: 54%
- inhibition [32]: 17%
- inhibition [33]: 18%
- inhibition [34]: 8%
- inhibition [35]: 4%
- Activity (Mus musculus): Non-toxic
- inhibition [36]: 25%
- inhibition [37]: 34%
- concentration at 24 h [38]: 0.06 µM
- IC50 [39]: 505 nM
- inhibition [40]: -1%
- inhibition [41]: -6%
- inhibition [42]: 14%
- inhibition [43]: 7%
- inhibition [44]: 6%
- IC50 [45]: 286 nM
- inhibition [46]: 0%
- concentration at 6 h [47]: 6.6 µM
- inhibition [48]: 9%
- inhibition [49]: 9%
- half-life [50]: > 0.5 h
- TGI (COLO 205): Active
